The values below come from ChEMBL document CHEMBL1138858, “Small-molecule targeting of heat shock protein 90 chaperone function: rational identification of a new anticancer lead” (J Med Chem, 2006).

Series [1] deals with T1, Heat shock protein HSP90 (Homo sapiens) (UniProt P07900+P08238). Put plainly: Activity at Hsp90 in DU145 cells assessed as reduction in telomerase activity by TRAP assay relative to control. The class given is cell-based. The arrangement: scale not given: the % may be the effect or the level left. The following applies: DU-145.
Series [2] has as its system HeLa. Nature of the series: Cytotoxicity against HeLa cells after 72 hrs. The class given is cell-based. To be noted: Homo sapiens.
A short description of series [3]: Apoptotic activity against JR8 cells after 72 hrs. The class given is functional, Homo sapiens.
The target of series [4] is T2, Caspase-3 (Homo sapiens) (UniProt P42574).
T2 sequence (whole entry): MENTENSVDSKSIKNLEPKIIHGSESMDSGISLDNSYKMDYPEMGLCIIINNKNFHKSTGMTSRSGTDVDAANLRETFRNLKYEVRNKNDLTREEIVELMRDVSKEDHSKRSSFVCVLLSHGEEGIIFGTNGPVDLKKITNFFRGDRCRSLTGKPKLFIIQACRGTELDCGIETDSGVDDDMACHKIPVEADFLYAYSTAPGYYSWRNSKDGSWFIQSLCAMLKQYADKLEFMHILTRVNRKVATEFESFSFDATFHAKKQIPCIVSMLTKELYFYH
Put plainly: Activation of caspase 3 in HeLa cells assessed as hydrolysis of DEVD-pNA […] substrate. It counts as cell-based.

In series [5] the target is T3, Caspase-9 (Homo sapiens) (UniProt P55211).
T3 sequence (whole entry): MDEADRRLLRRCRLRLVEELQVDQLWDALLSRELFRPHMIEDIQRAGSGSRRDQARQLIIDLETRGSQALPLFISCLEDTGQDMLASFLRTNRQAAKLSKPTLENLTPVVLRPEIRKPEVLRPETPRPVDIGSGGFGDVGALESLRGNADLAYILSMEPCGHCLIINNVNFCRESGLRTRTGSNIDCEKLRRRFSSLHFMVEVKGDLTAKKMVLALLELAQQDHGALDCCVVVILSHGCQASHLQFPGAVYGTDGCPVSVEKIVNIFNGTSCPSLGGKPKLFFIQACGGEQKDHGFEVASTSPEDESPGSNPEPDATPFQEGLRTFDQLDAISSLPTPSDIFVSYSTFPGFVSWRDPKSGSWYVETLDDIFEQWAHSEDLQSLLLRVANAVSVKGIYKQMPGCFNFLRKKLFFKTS
Nature of the series: Activation of caspase 9 in HeLa cells assessed as hydrolysis of LEHD-pNA […] substrate. It counts as cell-based.

Series [6] has as its system DU-145. Nature of the series: Apoptotic activity against DU145 cells after 72 hrs. It counts as functional, Homo sapiens.
Series [7] can be described thus: Induction of apoptosis in JR8 cells after 72 hrs at 125 uM. The class given is functional, Homo sapiens.
Series [8] concerns HeLa. Put plainly: Apoptotic activity against HeLa cells after 72 hrs. The class given is functional, Homo sapiens.
Series [9] has as its system HeLa. Put plainly: Induction of apoptosis in HeLa cells after 72 hrs at 125 uM. It counts as functional, Homo sapiens.
Series [10] deals with DU-145. Nature of the series: Cytotoxicity against DU145 cells after 72 hrs. The class given is cell-based. The following applies: Homo sapiens, DU-145, 72 h.
Series [11] concerns the target T1, Heat shock protein HSP90 (Homo sapiens). Put plainly: Activity at Hsp90 in HeLa cells assessed as reduction in telomerase activity by TRAP assay relative to control. The class given is cell-based. The arrangement: scale not given: the % may be the effect or the level left.
For series [12], the system named is DU-145. Put plainly: Induction of apoptosis in DU145 cells after 72 hrs at 62.5 uM. It counts as functional, Homo sapiens.
The target of series [13] is T2, Caspase-3 (Homo sapiens). Put plainly: Activation of caspase 3 in DU145 cells assessed as hydrolysis of DEVD-pNA […] substrate. The class given is cell-based. The following applies: DU-145.
For series [14], the target named is T3, Caspase-9 (Homo sapiens). Nature of the series: Activation of caspase 9 in DU145 cells assessed as hydrolysis of LEHD-pNA […] substrate. To be noted: DU-145. The class given is cell-based.
Series [15] in a line: Cytotoxicity against human WI38 cells after 72 hrs. The class given is cell-based. To be noted: wi-38, 72 h.
Series [16] can be described thus: Cytotoxicity against JR8 cells after 72 hrs. It counts as cell-based. To be noted: Homo sapiens, JR8, 72 h.

Structures are written as SMILES. Active and inactive are the calls of the source. The rule behind the calls is not given here.

Turning to `NC(=O)c1ncn([C@@H]2O[C@H](COP(=O)(O)O)[C@@H](O)[C@H]2O)c1N`, the Activity worked out at 70% in series [1]; 13% in series [3]; 28% in the series on DU-145 [6]; 20% in series [7]; 23% in the series on HeLa [8]; 27% in the series on HeLa [9]. In addition, the Activity in series [11] is 70%; with DU-145 [12], 34%; in [15], “Not Active”. The IC50 was 126 µM with HeLa [2], 59 µM in the series with DU-145 [10] and 105 µM in series [16]. For the same molecule, the outcome on Caspase-3 (Homo sapiens) [4], at Caspase-9 (Homo sapiens) [5], on Caspase-3 (Homo sapiens) [13] and on Caspase-9 (Homo sapiens) [14] was Active.

Turning to `C=CCNC1=C2C[C@@H](C)C[C@H](OC)[C@H](O)[C@@H](C)/C=C(\C)[C@H](OC(N)=O)[C@@H](OC)/C=C\C=C(/C)C(=O)NC(=CC1=O)C2=O` [TANESPIMYCIN], the half-inhibitory concentration (IC50) in the series with HeLa [2] worked out at 108 µM; with DU-145 [10], 68.3 µM; in series [16], 53.3 µM. For the same molecule, the figures for the Activity (in [3]; in the series with DU-145 [6]; in the series with HeLa [8]) were 12%, 15.9% and 10.8%, respectively.
